Results taken from the supplement of paper PMC6206229.
In brackets after ≈: the same amount, converted by molar mass.

Tests used:
[1] = system: Staphylococcus aureus ATCC 29213 (MSSA); assay: minimum inhibitory concentration; extreme values may be limits of the assay
In short: (§1)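 Methicillin-susceptible and methicillin-resistant Staphylococcus aureus were tested by broth microdilution in 96-well plates, following CLSI guidance with a resazurin redox read-out. Compounds were tested from 0 to 100 µM and incubated with bacteria for 24 h at 37°C, then 30 µl of 0.015% resazurin was added for 2–4 h, with positive controls on each plate. The minimum inhibitory concentration was the lowest concentration that stayed blue rather than turning pink. Runs were done at least twice in triplicate.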

[2] = system: Staphylococcus aureus ATCC 700699 (MRSA); assay: as above
In short: as §1

Row | SMILES | minimum inhibitory concentration [1] | minimum inhibitory concentration [2]
1 | Nc1ncc(Br)cc1-c1nc2cc(Cl)cnc2[nH]1 | > 50 µM | > 50 µM
2 | CC1COC2(CCN(c3nc(=O)c4cc(C(F)(F)F)cc([N+](=O)[O-])c4s3)CC2)O1 (stereo not given) | > 50 µM | > 50 µM
3 | CCC(C)NC(=O)c1ccc(NC(=O)C2(c3ccccc3)CCCC2)cc1 (stereo not given) | > 50 µM | > 50 µM
4 | C[C@H](c1ccc2c(c1)CCCC2)N(C)c1ncc2c(N)nc(N)nc2n1 | 50 µM (≈ 17.5 µg/mL) | 50 µM (≈ 17.5 µg/mL)
5 | COc1cc(-c2cc(-c3ccc(S(C)(=O)=O)cc3)cnc2N)ccc1O | > 50 µM | > 50 µM
6 | CCCc1ccc(S(=O)(=O)Nc2ccc(CN3CCN(CC4CC4)CC3)cc2)cc1 | > 50 µM | > 50 µM
7 | CNC(=O)c1nn(C)c2c1C(C)(C)Cc1cnc(Nc3ccc(N4CCN(C)CC4)cc3)nc1-2 | > 50 µM | > 50 µM
8 | COc1ccc(-c2cnc3ccc(N4CCCC4)nn23)cc1OC | > 50 µM | > 50 µM
9 | OCCc1ccc(Nc2nccc(-c3nnc4ccccn34)n2)cc1 | > 50 µM | > 50 µM
10 | c1ccc2c(c1)CN(CC1CC1)CC1(CCN(Cc3c[nH]c4cnccc34)CC1)O2 | 50 µM (≈ 20.1 µg/mL) | 50 µM (≈ 20.1 µg/mL)
11 | CNc1snc(C)c1C(=O)NCCOc1ccc(OC)cc1 | > 50 µM | > 50 µM
12 | Cc1ccc2[nH]c(C3CCCNC3)c(-c3ccncc3)c2c1 (stereo not given) | > 50 µM | > 50 µM
13 | CNC(=O)c1cc(S(=O)(=O)N2CCN(c3ccccn3)CC2)cs1 | > 50 µM | > 50 µM
14 | Nc1ncnc2c1c(Cc1cccc3ccccc13)nn2CC1CCNCC1 | > 50 µM | > 50 µM
15 | CCn1cnc2c(Nc3cc(F)cc(F)c3)nc(C#N)nc21 | > 50 µM | > 50 µM
16 | Cc1cc(Nc2ccncc2)n2nc(C)c(-c3ccccc3Cl)c2n1 | > 50 µM | > 50 µM
17 | O=C(C(Cc1c[nH]c2ccccc12)NS(=O)(=O)c1ccc(Cl)cc1)N1CCCCC1 (stereo not given) | > 50 µM | > 50 µM
18 | CCOC(=O)c1c(NC(=O)c2c(F)c(F)c(F)c(F)c2F)sc(C(N)=O)c1C | > 50 µM | > 50 µM

Row | SMILES | minimum inhibitory concentration [1] | minimum inhibitory concentration [2]
19 | Cc1nc(-c2ccccn2)nc(N(C)CCc2ccccc2)c1Cl | 50 µM (≈ 16.9 µg/mL) | 50 µM (≈ 16.9 µg/mL)
20 | CO[C@@H](C(=O)N1Cc2[nH]nc(NC(=O)c3ccc(N4CCN(C)CC4)cc3)c2C1)c1ccccc1 | > 50 µM | > 50 µM
21 | CCCCS(=O)(=O)Nc1ccc2cnn(C)c2c1 | > 50 µM | > 50 µM
22 | CS(=O)(=O)Cc1nc2ccccc2oc1=O | > 50 µM | > 50 µM
23 | C[C@H]1COc2c(N3CCN(C)CC3)c(F)cc3c(=O)c(C(=O)O)cn1c23 | 0.78 µM (≈ 0.282 µg/mL) | 50 µM (≈ 18.1 µg/mL)
24 | Clc1cccc(CO[C@H]2CCc3ccccc3[C@@H]2n2ccnn2)c1 | > 50 µM | > 50 µM
25 | O=C(C1CCN(c2nnnn2-c2ccccc2)CC1)N1CCc2ccccc2C1 | > 50 µM | > 50 µM
26 | COc1cccc(OCC(=O)c2ccc(Br)cc2)c1 | > 50 µM | > 50 µM
27 | CC(C)(C)C(=O)N(CCCCCCN1C[C@H](O)[C@@H](O)[C@H](O)[C@H]1CO)C1CCCCCC1 | > 50 µM | > 50 µM
28 | O=C(c1ccc(NCCO)cc1)C1C[C@H]1c1ccc(Cl)cc1 (stereo not given in full) | > 50 µM | > 50 µM
29 | Cc1cc(C2=NOC(c3cc(Cl)c(F)c(Cl)c3)(C(F)(F)F)C2)ccc1C(=O)NCc1ccc2c(c1)C(C)(C)OB2O (stereo not given) | > 50 µM | > 50 µM
30 | COc1ccc(N(CCc2cccc(C)n2)C(C)=O)cc1 | > 50 µM | > 50 µM
31 | O=C(NC1CC1)c1ccc(N2CCC(Cc3ccccc3)CC2)nc1 | > 50 µM | > 50 µM
32 | COc1cc(Br)cc2cc(C(=O)Nc3cccc(C(F)(F)F)c3)c(=O)oc12 | > 50 µM | > 50 µM
33 | Cc1cc(C)n2nc(C(=O)Nc3cc(C(F)(F)F)ccc3N3CCOCC3)nc2n1 | > 50 µM | > 50 µM
34 | COc1nc2ccc(Br)cc2cc1[C@@H](c1ccccc1)[C@@](O)(CCN(C)C)c1cccc2ccccc12 | > 50 µM | > 50 µM
35 | CNc1cc(C)nc(C2CN(C(=O)c3n[nH]c4ccccc34)CCO2)c1 (stereo not given) | > 50 µM | > 50 µM
